Target: T1, glucose-6-phosphate dehydrogenase (G6PDH) (Rattus norvegicus, UniProt P05370)
T1 construct: endogenous in cells; host or cells: primary rat tracheal (airway) smooth muscle cells
Assay: G6PDH activity after pretreatment of intact airway smooth muscle monolayers
Format: cell-based
Settings: for G6PDH activity of subsequent cell lysates: monolayers pretreated with concentrations that inhibited cell proliferation, result in words
Method: After 1 hour cells were lysed and G6PDH activity was assayed as described below. In other experiments, G6PDH activity was measured in cell lysates prepared from untreated confluent cultures and treated in vitro with DHEA or 16α-BrEA added to the reaction mixture in 5 µl DMSO. […] Ribonucleosides or deoxyribonucleosides were dissolved in 0.5 ml of 1 N HCl and added to DMEM. The pH of the medium was adjusted to 7.1 by titration with 1 N NaOH, and medium was then sterilized by passage through a […] filter. Growth was measured by MTT reduction after 24, 48 and 96 hours.
To determine if DHEA or its analogs induced programmed cell death, confluent cultures in 6 well plastic plates were treated with 50 or 250 µM DHEA, 10 or 50 µM 16α-BrEA, or vehicle (25 µl DMSO). After 2 hours cells were washed twice with DPBS and scraped on ice into 1.5 ml microfuge tubes and centrifuged 250 g for 5 minutes at 4°C. The cell pellet was gently resuspended in 30 µl DPBS and lysed by addition of 30 µl lysis buffer (80 mM EDTA, 1.6% [wt/vol] sodium lauryl sarcosinate and 5 mg/ml proteinase K in 200 mM Tris-HCl buffer, pH 8.0). Lysate was incubated at 50°C for 1.5 hours. RNAse A (0.2 mg/ml) was added and the lysate was incubated for another 30 minutes at 37°C. DNA bands were separated along with a DNA ladder standard on a 1% agarose gel at 60 V for 1 hour, intercalated with ethidium bromide, and visualized and photographed under ultraviolet light. Measurement of Glucose-6-Phosphate Dehydrogenase Activity. Cultures were washed three times with cold DPBS on ice, scraped into ice cold buffer (10 mM MgCl2 in 50 mM Tris, pH 8.0) and sonicated on ice. G6PDH activity was then assayed by the method of Jones and Andrews (Jones, J.T., and Andrews, S.G., "Glucose-6-phosphate dehydrogenase activity in somatic and germinal cells of the mouse testis," J. Reproduc. Fertility, 54, 357-362 (1978)) in a reaction mixture containing 50-200 µl cell lysate, 20 µl of 10 mM β-nicotinamide adenine dinucleotide phosphate (NADP) and 20 µl of 10 mM D-glucose-6-phosphate (G6P) in a total volume of 1 ml buffer (10 mM MgCl2 in 50 mM Tris, pH 8.0). The reaction was initiated by addition of G6P. The linear increase in absorbance at 340 nm was monitored at 25°C for 300 seconds. Activity was expressed as units/mg protein, where 1.0 unit will oxidase 1.0 µmole of G6P to 6-phospho-D-gluconate per min in the presence of NADP. Protein was measured using the BCA protein assay (Rockford, IL). Immunoblot Assay for p21^ras and c-fos Proteins. For measurement of p21^ras, cells were washed twice-with cold DPBS and swelled on ice for 15 minutes with 500 µl cold lysis buffer (10 mM HEPES, 1 mM MgCl2, 1 mM EDTA, 1 µM pepstatin, 2 µg/ml aprotinin, and 1 mM phenylmethylsulfonyl fluoride). See Schulz and Nyce (1991), supra. Cells were then scraped into 1.5 ml polypropylene tubes, homogenized and clarified by centrifugation at 3,000 g for 1 minute at 4°C. The postnuclear supernatant was centrifuged 100,000 g for 30 minutes at 4°C. Supernatants were collected and pelleted membranes were resuspended in detergent buffer (1% Triton X-100, 1% sodium deoxycholate, 0.1% SDS, 150 mM NaCl, 1 µM pepstatin, 2 µg/ml aprotinin and 1 mM phenylmethylsulfonyl fluoride in 25 mM Tris, pH 7.4). Aliquots of supernatant and membrane fractions were removed for protein determination using the BCA protein assay. Bromophenol blue and β-mercaptoethanol were added to the remaining sample to a final concentration of 0.002% (wt/vol) and 5% (vol/vol), respectively. Lysates were then boiled for 5 minutes at 100°C and stored at -80°C until immunoblotting was performed.
Activity is expressed as % inhibition of DMSO vehicle-treated controls by 16α-bromoepiandrosterone (BrEA) or dehydroepiandrosterone (DHEA). DMSO alone caused no reduction in G6PDH activity under assay conditions. Each bar represents the mean of at least 3 experiments. Methods are described in the text. […]

T1 sequence (P05370 whole entry): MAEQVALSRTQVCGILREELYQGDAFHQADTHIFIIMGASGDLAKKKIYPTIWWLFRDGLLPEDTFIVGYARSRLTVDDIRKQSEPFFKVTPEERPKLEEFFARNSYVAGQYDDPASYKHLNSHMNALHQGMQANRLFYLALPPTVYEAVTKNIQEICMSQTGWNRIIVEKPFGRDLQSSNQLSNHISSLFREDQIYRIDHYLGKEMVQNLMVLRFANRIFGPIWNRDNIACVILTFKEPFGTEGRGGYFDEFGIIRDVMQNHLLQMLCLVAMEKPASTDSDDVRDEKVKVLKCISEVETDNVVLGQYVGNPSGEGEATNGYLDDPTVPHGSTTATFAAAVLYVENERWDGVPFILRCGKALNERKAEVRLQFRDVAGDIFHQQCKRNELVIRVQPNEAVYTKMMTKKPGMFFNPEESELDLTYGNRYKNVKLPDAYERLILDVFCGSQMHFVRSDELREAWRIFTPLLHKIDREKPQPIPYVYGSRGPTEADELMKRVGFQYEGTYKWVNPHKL

Which “G6PDH activity of subsequent cell lysates” value does the source give for `C[C@]12CC[C@H](O)C[C@@H]1CC[C@@H]1[C@@H]2CC[C@]2(C)C(=O)[C@H](Br)C[C@@H]12` [16α-BrEA, 16α-bromoepiandrosterone] here?
The value was “not significantly reduced”.

`C[C@]12CC[C@H](O)CC1=CC[C@@H]1[C@@H]2CC[C@]2(C)C(=O)CC[C@@H]12` [DHEA, dehydroepiandrosterone] was tested. Which inhibition at 25 µM (25 µM, Intact Airway Smooth Muscle monolayers pretreated 1 hour before harvest, read-out: PERCENT INHIBITION OF GLUCOSE 6-PHOSPHATE DEHYDROGENASE ACTIVITY) did it give?
Its inhibition at 25 µM is 0%.

What about the inhibition at 50 µM (50 µM, Intact Airway Smooth Muscle monolayers pretreated 1 hour before harvest, read-out: PERCENT INHIBITION OF GLUCOSE 6-PHOSPHATE DEHYDROGENASE ACTIVITY) of the same molecule?
Its inhibition at 50 µM is 0%.

What about the inhibition at 100 µM (100 µM, Intact Airway Smooth Muscle monolayers pretreated 1 hour before harvest, read-out: PERCENT INHIBITION OF GLUCOSE 6-PHOSPHATE DEHYDROGENASE ACTIVITY) of the same molecule?
The inhibition at 100 µM was 6 ± 7%.

What about the inhibition at 250 µM (250 µM, Intact Airway Smooth Muscle monolayers pretreated 1 hour before harvest, read-out: PERCENT INHIBITION OF GLUCOSE 6-PHOSPHATE DEHYDROGENASE ACTIVITY) of the same molecule?
The inhibition at 250 µM was 24 ± 9%.

And the “G6PDH activity of subsequent cell lysates” value?
Its value is “not significantly reduced”.

From patent publication EP0934745B1, “Use of androsterone derivatives for inhibiting DNA binding of ap-1 and airway smooth muscle proliferation” (CHARLOTTE-MECKLENBURG HOSPITAL doing business as Carolinas …, priority 1998, dated 1999)
